Results: BigSolDB 2.1

C[C@@H]1O[C@@H](O[C@H]2[C@H](Oc3cc(O)c4c(c3)O[C@H](c3ccc(O)cc3)CC4=O)O[C@H](CO)[C@@H](O)[C@@H]2O)[C@H](O)[C@H](O)[C@H]1O
solubility (mole fraction)
Details | 288.15 K | 293.15 K | 298.15 K | 303.15 K | 308.15 K | 313.15 K | 318.15 K | 323.15 K | 328.15 K
in ethyl acetate | 0.000184 | 0.000248 | 0.00031 | 0.00035 | 0.000404 | 0.000458 | 0.000513 | 0.000594 | 0.000646
in isopropanol | 1.26e-05 | 1.59e-05 | 2.1e-05 | 2.46e-05 | 2.97e-05 | 3.34e-05 | 3.75e-05 | 4.29e-05 | 4.79e-05
in methanol | 0.00158 | 0.00168 | 0.00197 | 0.00224 | 0.00264 | 0.00291 | 0.00322 | 0.00359 | 0.00389
in n-butanol | 4.85e-05 | 6.34e-05 | 7.46e-05 | 0.000105 | 0.000157 | 0.000218 | 0.000285 | 0.000345 | 0.000391
in n-hexane | 9.97e-08 | 1.39e-07 | 1.75e-07 | 2.21e-07 | 2.63e-07 | 3.12e-07 | 3.6e-07 | 4.04e-07 | 4.55e-07

O=C1C[C@@H](c2ccc(O)cc2)Oc2cc(O)cc(O)c21
solubility (mole fraction)
Details | 288.15 K | 293.15 K | 298.15 K | 303.15 K | 308.15 K | 313.15 K | 318.15 K | 323.15 K | 328.15 K
in ethyl acetate | 0.00998 | 0.0133 | 0.0154 | 0.0171 | 0.0191 | 0.0215 | 0.0244 | 0.027 | 0.0293
in isopropanol | 0.0101 | 0.0116 | 0.0141 | 0.0161 | 0.0185 | 0.0204 | 0.0218 | 0.0252 | 0.0264
in methanol | 0.00875 | 0.0094 | 0.00991 | 0.0105 | 0.0114 | 0.0144 | 0.0173 | 0.0187 | 0.0205
in n-butanol | 0.000972 | 0.00137 | 0.00175 | 0.00215 | 0.00259 | 0.00299 | 0.00344 | 0.00388 | 0.0042
in n-hexane | 2.92e-06 | 3.7e-06 | 4.71e-06 | 5.42e-06 | 6.46e-06 | 7.17e-06 | 7.73e-06 | 8.69e-06 | 9.09e-06
